In ChEMBL document CHEMBL1141959, “Metalloform-selective inhibition: synthesis and structure-activity analysis of Mn(II)-form-selective inhibitors of Escherichia coli methionine aminopeptidase” (Bioorg Med Chem Lett, 2005):

What was measured:
[1] = biological target: T1, Methionine aminopeptidase (Escherichia coli K-12, UniProt P0AE18); experiment: Inhibitory activity against Co(II) form of Escherichia coli MetAP
T1 sequence (P0AE18 whole entry): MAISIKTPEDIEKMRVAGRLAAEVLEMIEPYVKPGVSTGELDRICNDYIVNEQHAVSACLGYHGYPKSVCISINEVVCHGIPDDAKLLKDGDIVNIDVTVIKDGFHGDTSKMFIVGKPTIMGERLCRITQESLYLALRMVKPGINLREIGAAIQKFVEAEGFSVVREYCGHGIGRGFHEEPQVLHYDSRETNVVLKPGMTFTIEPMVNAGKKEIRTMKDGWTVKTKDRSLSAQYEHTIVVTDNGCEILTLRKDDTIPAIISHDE

[2] = biological target: T1, Methionine aminopeptidase; experiment: Inhibitory activity against Mn(II) form of Escherichia coli MetAP
[3] = biological target: T1, Methionine aminopeptidase; experiment: Inhibitory activity against Ni(II) form of Escherichia coli MetAP
[4] = biological target: T1, Methionine aminopeptidase; experiment: Inhibitory activity against Fe(II) form of Escherichia coli MetAP

Row | Compound | IC50 [1] | IC50 [2] | IC50 [3] | IC50 [4]
1 | CCOc1ccccc1-c1ccc(C(=O)O)o1 | 147 µM | 1.13 µM | > 200 µM | > 200 µM
2 | C=CCCOc1ccccc1-c1ccc(C(=O)O)o1 | 93.5 µM | 3.65 µM | 113 µM | 111 µM
3 | O=C(O)c1ccc(-c2cccc(Cl)c2)o1 | 199 µM | 11.7 µM | > 200 µM | > 200 µM
4 | O=C(O)c1ccc(-c2ccc(Cl)cc2)o1 | 180 µM | 12.1 µM | > 200 µM | > 200 µM
5 | O=C(O)c1ccc(Cc2ccccc2Cl)o1 | 158 µM | 1.22 µM | 191 µM | 199 µM
6 | O=C(O)c1ccc(-c2ccccc2C(=O)O)o1 | > 200 µM | 23.5 µM | > 200 µM | > 200 µM
7 | O=C(O)c1ccc(-c2ccccc2CO)o1 | 189 µM | 10 µM | 190 µM | > 200 µM
8 | O=C(O)c1ccc(-c2cc([N+](=O)[O-])ccc2F)o1 | 157 µM | 14.9 µM | 193 µM | 199 µM
9 | Cc1cccc(-c2ccc(C(=O)O)o2)c1Cl | 187 µM | 1.71 µM | 188 µM | 196 µM
10 | O=C(O)c1ccc(-c2ccccc2C(F)(F)F)o1 | 101 µM | 0.29 µM | 165 µM | 158 µM
11 | O=C(O)c1ccc(-c2ccccc2)o1 | 188 µM | 16.3 µM | 195 µM | > 200 µM
12 | COCCOc1ccccc1-c1ccc(C(=O)O)o1 | 103 µM | 9.45 µM | 163 µM | 169 µM
13 | C#CCOc1ccccc1-c1ccc(C(=O)O)o1 | 98.9 µM | 4.71 µM | 171 µM | 193 µM
14 | COC(=O)c1ccc(-c2ccccc2Cl)o1 | > 200 µM | 166 µM | > 200 µM | > 200 µM
15 | O=C(O)c1ccc(-c2ccccc2O)o1 | 127 µM | 6.92 µM | 153 µM | 190 µM
16 | O=C(NO)c1ccc(Cc2ccccc2Cl)o1 | 119 µM | 9.84 µM | 107 µM | 122 µM
17 | O=C(O)c1ccc(-c2ccccc2F)o1 | > 200 µM | 13.6 µM | > 200 µM | > 200 µM
18 | COC(=O)c1ccccc1-c1ccc(C(=O)O)o1 | 160 µM | 3.47 µM | 194 µM | > 200 µM
19 | O=C(O)c1ccc(-c2ccccc2[N+](=O)[O-])o1 | 120 µM | 1.08 µM | 175 µM | 178 µM

These reach a lower IC50 [1]. Values come first.

Row | IC50 [1] | IC50 [2] | IC50 [3] | IC50 [4] | Compound
20 | 55.4 µM | 0.893 µM | 68 µM | 85.2 µM | O=C(O)c1ccc(-c2ccccc2CF)o1
21 | 57.3 µM | 47.6 µM | 56.3 µM | 97.7 µM | N#CCc1ccc(-c2ccccc2Cl)o1
22 | 84.2 µM | 28.1 µM | 55 µM | > 200 µM | OCc1ccc(-c2ccccc2Cl)o1
23 | 4.61 µM | 0.469 µM | 5.9 µM | 0.793 µM | O=C(NO)c1ccc(-c2ccccc2Cl)o1
24 | 77.1 µM |  | 5.78 µM | 58 µM | NNC(=O)c1ccc(-c2ccccc2Cl)o1
25 | 57.5 µM | 40 µM | 51.2 µM | 178 µM | CONC(=O)c1ccc(-c2ccccc2Cl)o1
26 | 24.1 µM | 0.642 µM | 34.5 µM | 36.2 µM | COc1ccc([N+](=O)[O-])cc1-c1ccc(C(=O)O)o1
27 | 82.6 µM | 7.17 µM | 67.5 µM | 69.2 µM | O=Cc1ccccc1-c1ccc(C(=O)O)o1
28 | 56.6 µM | 12.5 µM | 94.5 µM | 95.8 µM | Nc1ccccc1-c1ccc(C(=O)O)o1
29 | 71.4 µM | 15.9 µM | 137 µM | > 200 µM | NC(=O)c1ccc(-c2ccccc2Cl)o1
30 | 90.5 µM | 44.6 µM | 89.8 µM | 138 µM | O=C(O)c1ccc(Cc2ccc(Cl)cc2)o1
31 | 44.3 µM | 1.32 µM | 38.4 µM | 31.1 µM | O=C(O)c1ccc(-c2cc([N+](=O)[O-])ccc2Cl)o1
32 | 59.5 µM | 1.11 µM | 28.5 µM | 150 µM | Cc1cc([N+](=O)[O-])ccc1-c1ccc(C(=O)O)o1
33 | 77.3 µM | 0.784 µM | 117 µM | 177 µM | O=C(O)Cc1ccc(Cc2ccccc2Cl)o1
34 | 42.5 µM | 33.5 µM | 67.5 µM | 33.7 µM | O=C(O)c1ccc(Cc2ccccc2)o1
